Data reported in the NIST ThermoML archive (doi:10.1021/je200508x).

Conditions: 101.33 kPa, Crystal, Vacuum adiabatic calorimetry

C=C(C)C(=O)[O][Sb]([O]C(=O)C(=C)C)([c]1ccccc1)([c]1ccccc1)[c]1ccccc1 [triphenyl-.lambda.5-stibanediyl bis(2-methylacrylate)]
Conditions | molar entropy [J/K/mol]
5 K | 0.671
10 K | 4.78
15 K | 12.1
20 K | 21.52
25 K | 32.28
30 K | 44.02
35 K | 56.34
40 K | 69.14
45 K | 82.14
50 K | 95.25
60 K | 121.6
70 K | 147.7
80 K | 173.5
90 K | 198.9
100 K | 223.7
110 K | 247.9
120 K | 271.6
130 K | 294.8
140 K | 317.4
150 K | 339.7
160 K | 362.6
170 K | 384.6
180 K | 405.6
190 K | 426.3
200 K | 446.6
210 K | 466.8
220 K | 486.7
230 K | 506.4
240 K | 526
250 K | 545.3
260 K | 564.5
270 K | 583.5
280 K | 602.3
290 K | 621.1
298.15 K | 636.3
300 K | 639.7
310 K | 658.3
320 K | 676.9
330 K | 695
340 K | 714
350 K | 732
360 K | 750
370 K | 768
380 K | 786
390 K | 804
400 K | 821
